According to US20240315952A1, “PERSONAL CARE COMPOSITION” (Conopco, Inc., d/b/a UNILEVER, priority 2020, published 2024):

System: IL-1α
Assay: IL-1α expression in EpiKutis living skin equivalent (LSE) stressed with 1% SQOOH, human immunoassay kit
Assay type: cell-based
Conditions: levels are raw material wt %; for IL-1α level: EpiKutis 3D reconstructed human epidermis, sample applied topically, then 3 μL of 1% SQOOH, after 72 hours; for Inhibition: inhibition of IL-1α vs 1% SQOOH control, EpiKutis LSE, 72 hours
Description: EpiKutis® living skin equivalent (LSE), is a 3D reconstructed human epidermis model with Chinese human keratinocytes through air-liquid interface culture in a defined serum free medium, supplied by supplied by Biocell (Xi'an, China). Squalene monohydroperoxide (SQOOH), a stress surrogate, was prepared in house, by subjecting squalene to solar irradiation in the presence of a sensitizer.
The SQOOH was diluted using squalene. The moringa oil was dissolved in DMSO (dimethyl sulfoxide) at a concentration of 100 mM to form a stock solution. The samples in Table 1 were prepared accordingly by diluting the materials except moringa oil and/or stock solution with PBS (phosphate-buffered saline) to the desired levels as indicated in Table 1 before use for further experiment.
The sample was applied topically to the LSE followed by application of 3 μL of 1% SQOOH. The medium was then refreshed with interval of 24 hours. After 72 hours, the tissues were collected for histology and to test the extent of viability. The IL-1a expression was evaluated using a human immunoassay kit from R&D systems (Cat. DLA 50) and tested following the manufacturer's instructions.

SMILES	IL-1α level [pg/mL]	Inhibition [%]
NC(=O)c1cccnc1 [Sample 5, Niacinamide]	6.6 ± 0.63	25.33
NC(=O)c1cccnc1 [Sample 6, Niacinamide]	5.8 ± 0.60	33.57
